Measurements reported in PMC2099433, “The binding site for neohesperidin dihydrochalcone at the human sweet taste receptor” (BMC Structural Biology, 2007).
Where a chain is given by its changes, count along the chain named. Where a SMILES comes first, the peptide text is derived from it.

Tests used:
[1] = target: T1, hTAS1R2 + hTAS1R3 A733V^5.46 (Homo sapiens, UniProt Q7RTX0+Q8TE23, A733V); assay: Calcium response (FLIPR), hTAS1R3 mutant coexpressed with hTAS1R2; type: cell-based; conditions: variant A733V^5.46; for Emax: read-out: maximal signal (% of wt)
T1 construct: expressed in transfected cells; host or cells: HEK293T cells stably expressing G16Gust44
T1 sequence (Q8TE23 20-839): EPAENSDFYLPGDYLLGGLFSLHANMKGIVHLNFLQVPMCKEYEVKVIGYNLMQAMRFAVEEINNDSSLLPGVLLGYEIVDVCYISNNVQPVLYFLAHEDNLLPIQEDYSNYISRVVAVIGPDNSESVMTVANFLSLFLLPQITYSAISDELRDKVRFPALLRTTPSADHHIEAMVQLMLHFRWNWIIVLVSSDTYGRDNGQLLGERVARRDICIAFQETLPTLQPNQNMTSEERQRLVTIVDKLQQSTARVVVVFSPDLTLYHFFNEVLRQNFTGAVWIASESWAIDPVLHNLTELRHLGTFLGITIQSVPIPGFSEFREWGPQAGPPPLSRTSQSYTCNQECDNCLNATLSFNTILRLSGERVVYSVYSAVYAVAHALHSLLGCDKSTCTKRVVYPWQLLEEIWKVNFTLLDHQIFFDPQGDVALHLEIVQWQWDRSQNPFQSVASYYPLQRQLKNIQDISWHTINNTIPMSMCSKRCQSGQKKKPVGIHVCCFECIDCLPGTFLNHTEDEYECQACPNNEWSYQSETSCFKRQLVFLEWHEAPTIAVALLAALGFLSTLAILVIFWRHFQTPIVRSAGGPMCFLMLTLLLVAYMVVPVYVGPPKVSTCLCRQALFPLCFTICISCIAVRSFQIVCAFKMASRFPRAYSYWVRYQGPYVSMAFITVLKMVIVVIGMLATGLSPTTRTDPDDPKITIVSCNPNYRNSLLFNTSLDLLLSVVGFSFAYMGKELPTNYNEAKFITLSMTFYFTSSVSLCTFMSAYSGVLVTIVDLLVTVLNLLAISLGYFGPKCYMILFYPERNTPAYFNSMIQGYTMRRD
T1 sequence (Q7RTX0 21-852 A733V): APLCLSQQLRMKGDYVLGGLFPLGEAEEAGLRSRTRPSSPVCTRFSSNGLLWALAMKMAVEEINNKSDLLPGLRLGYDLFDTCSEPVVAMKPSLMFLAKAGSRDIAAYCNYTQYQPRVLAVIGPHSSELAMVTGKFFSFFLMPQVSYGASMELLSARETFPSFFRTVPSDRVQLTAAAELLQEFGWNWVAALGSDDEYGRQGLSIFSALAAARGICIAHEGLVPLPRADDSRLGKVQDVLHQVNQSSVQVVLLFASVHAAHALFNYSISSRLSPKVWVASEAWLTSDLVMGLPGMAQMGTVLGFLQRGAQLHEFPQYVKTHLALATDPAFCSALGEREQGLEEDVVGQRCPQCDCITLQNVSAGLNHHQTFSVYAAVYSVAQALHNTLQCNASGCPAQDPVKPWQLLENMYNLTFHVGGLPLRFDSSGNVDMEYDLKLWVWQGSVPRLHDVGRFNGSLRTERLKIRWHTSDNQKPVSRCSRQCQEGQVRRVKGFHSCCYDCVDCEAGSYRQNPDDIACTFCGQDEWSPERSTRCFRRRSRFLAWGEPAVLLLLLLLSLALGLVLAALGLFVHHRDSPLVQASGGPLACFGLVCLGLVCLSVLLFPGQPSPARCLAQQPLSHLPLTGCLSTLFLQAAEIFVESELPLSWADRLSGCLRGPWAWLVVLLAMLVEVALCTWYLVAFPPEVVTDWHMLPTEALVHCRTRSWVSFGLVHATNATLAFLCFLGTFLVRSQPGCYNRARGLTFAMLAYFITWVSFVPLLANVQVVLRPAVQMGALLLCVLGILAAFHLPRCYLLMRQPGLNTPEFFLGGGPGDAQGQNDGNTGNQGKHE
Outline: (§1)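 Read-out: FLIPR calcium signal as ΔF/F = (F-F0)/F0, corrected for mock-transfected cells. Cells were HEK293T stably carrying G16Gust44, transiently transfected with HSV-tagged receptor cDNAs and dye-loaded with Fluo4-AM 24 h post transfection.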

[2] = target: T2, hTAS1R2 + hTAS1R3 F778A^6.51 (Homo sapiens, UniProt Q7RTX0+Q8TE23, F778A); assay: as above; type: cell-based; conditions: variant F778A^6.51; for Emax: read-out: maximal signal (% of wt)
T2 construct: expressed in transfected cells; host or cells: HEK293T cells stably expressing G16Gust44
T2 sequence (Q8TE23 20-839): T1 sequence (Q8TE23 20-839)
T2 sequence (Q7RTX0 21-852 F778A): T1 sequence (Q7RTX0 21-852 A733V) with V713A, F758A
Outline: as §1

Row | EC50 [1] | Emax [1] | EC50 [2] | Emax [2] | SMILES
1 | 1.1 ± 0.3 mM | 92 ± 80% | 1.2 ± 0.1 mM | 80 ± 80% | COC(=O)[C@H](Cc1ccccc1)NC(=O)[C@@H](N)CC(=O)O [aspartame] (HELM PEPTIDE1{D.F.[CO[*:1]]}$$$$V2.0)
2 | 0.1 ± 0.02 mM | 133 ± 8% | 1.5 ± 0.4 mM | 50 ± 18% | COc1ccc(CCC(=O)c2c(O)cc(O[C@@H]3O[C@H](CO)[C@@H](O)[C@H](O)[C@H]3O[C@@H]3O[C@@H](C)[C@H](O)[C@@H](O)[C@H]3O)cc2O)cc1O [NHDC, neohesperidin dihydrochalcone]
